One molecule from ChEMBL document CHEMBL2434821, “New phenstatin-fatty acid conjugates: synthesis and evaluation” (Bioorg Med Chem Lett, 2013) can be followed below.

The test can be described thus: Cytotoxicity against human KB-3-1 cells assessed as cell survival at 0.5 uM after 72 hrs by MTT assay relative to control. The conditions noted are these: KB 3-1, 72 h.

As for `CCCCC/C=C\C/C=C\CCCCCCCC(=O)Oc1cc(C(=O)c2cc(OC)c(OC)c(OC)c2)ccc1OC`, the cell survival at 0.5 µM was 20%.
